The target in data set [1] is α-Glucosidase. Nature of the data set: α-Glucosidase inhibitory activity assay (4-nitrophenyl α-glucopyranoside substrate, absorbance at 405 nm). The class given is biochemical, Saccharomyces cerevisiae. The note with it: 0.26 U/mL enzyme, pH 6.8, 37°C; mean ± SEM, triplicate. The procedure: After incubation at 37°C for 10 min, 100 μL of the substrate, 4-nitrophenyl α-glucopyranoside (5 mM, in potassium phosphate buffer) was added to the mixture. The enzymatic reaction was allowed to proceed at 37°C for 20 min and stopped by addition of 100 μL of 0.2 M NaCO3. 4-Nitrophenol absorptions were subsequently measured at 405 nm using a spectrophotometer. […] The IC50 value was defined as the concentration of α-glucosidase inhibitor required to inhibit 50% of α-glucosidase activity under the assay conditions. Experiments were performed in triplicate, and all results are expressed as mean ± SEM.

Data set [2] has as its system α-D-glucosidase. Nature of the data set: TLC bioautographic assay for α-glucosidase inhibitors. The class given is biochemical. As to conditions: S1 Fig, subfractions 20 μL, ethyl acetate fraction 5 mg/mL, acarbose 1 mg/mL, 4 μL, qualitative. The text has this: In the present work, a high-performance thin-layer chromatographic system (CAMAG, Switzerland) equipped with an automatic TLC Sampler 4 and a Reprostar 3 with a 12-bit charge-coupled device camera for photo-documentation and controlled by WinCATS-4 software was used. […] After migration of the samples with appropriate solvents or no migration, the plates were inspected under ultraviolet light (366 nm) and then subjected to bioautographic assay as described below.
TLC bioautographic assay: TLC bioautographic assay was carried out as described previously in terms of reaction principle and response system but with slight modifications. First, the concentration of α-glucosidase was reduced from 10 U/mL to 2.5 U/mL. Second, the plate was dipped into the reaction solutions (including the enzyme solution, the substrate solution, and the coloration solution), instead of being sprayed with them. Third, the conditions for enzyme incubation were changed from room temperature for 60 min to 37°C for 30 min. Briefly, α-D-glucosidase (750 U) was dissolved in 75 mL of buffer solution (10.25 g of sodium acetate in 250 mL with addition of 0.1 M acetic acid to pH 7.5). The stock solution was kept at -20°C. A stock solution of 25 mL was diluted with the same buffer solution to 100 mL as the enzyme solution, and a substrate solution of 1 mg/mL 2-naphthyl-α-D-glucopyranoside in ethanol was prepared. […]

On the set-up of data set [3]: method as in PMID 23850835, PMID 18460146. As to conditions: previous toxicity studies; ref [23]–[25]; cited from earlier work.

SMILES strings stand for the structures.

The IC50 is the concentration at which inhibition is half-maximal. `CC1(C(=O)O)CCCC2(C)c3cc4c(c(O)c3CCC12)COC4=O` (centres unmarked) [Compound 2, 14-hydroxyabieta-8,11,13-triene-17-oic-12-carboxy-13-(1-hydroxy-1-methylethyl)-lactone] returned an IC50 in data set [1] of 0.624 ± 0.026 mM.
Still for that read-out and setting: in the case of `CC1=C(CCc2ccoc2)C2(C)CCCC(C)(C)C2CC1` (centres unmarked) [Compound 6, 15,16-eposy-8,13(16),14-labdatrien] it was 0.21 ± 0.01 mM.
In turn, `CCCCC/C=C/c1c(O)cc(CC=C(C)C)c(O)c1C=O` [Compound 18, tetrahydroauroglaucin] returned an IC50 in data set [1] of 0.283 ± 0.013 mM.
The same measure, in the same setting: in the case of `CCCCCCCc1c(O)cc(CC=C(C)C)c(O)c1C=O` [Compound 17, flavoglaucin] it was 0.229 ± 0.017 mM.
Turning to `C[C@H]1O[C@H](O[C@H]2[C@H](O)[C@@H](O)[C@@H](O[C@H]3[C@H](O)[C@@H](O)C(O)O[C@@H]3CO)O[C@@H]2CO)[C@H](O)[C@@H](O)[C@@H]1N[C@H]1C=C(CO)[C@@H](O)[C@H](O)[C@H]1O` (some centres unmarked) [Acarbose, acarbose], the “α-glucosidase inhibitory activity in bioautographic chromatogram (white spots), screening” value in data set [2] is recorded as “produced white spots”.
Turning to `CC1=C(CCc2ccoc2)C2(C)CCCC(C)(C(=O)O)C2CC1` (centres unmarked) [Compound 5, phlomisoic acid], the half-inhibitory concentration (IC50) in data set [1] amounted to 0.482 ± 0.019 mM.
`C[C@@H]1O[C@@H](O[C@@H]2[C@@H](O)[C@H](OCCc3ccc(O)c(O)c3)O[C@H](COC(=O)/C=C/c3ccc(O)c(O)c3)[C@H]2O)[C@H](O)[C@H](O)[C@H]1O` [Compound 8, isoacteoside]: in data set [1], the IC50 was 1.2 ± 0.032 mM. This IC50 lies about 2.5-fold higher than the previous one.
In turn, `C[C@@H]1O[C@@H](O[C@@H]2[C@@H](O)[C@H](OCCc3ccc(O)c(O)c3)O[C@H](CO)[C@H]2OC(=O)/C=C/c2ccc(O)c(O)c2)[C@H](O)[C@H](O)[C@H]1O` [Compound 7, acteoside] returned an IC50 in data set [1] of 0.518 ± 0.017 mM. Further, the toxicity entry in data set [3] is recorded as “nontoxic”.
Turning to `O=c1cc(-c2ccc(O)c(O)c2)oc2cc(O)cc(O)c12` [Compound 11, luteolin], inhibition in data set [1] was half-maximal at 0.428 ± 0.018 mM (IC50).
`CC1OC(Oc2c(-c3ccc(O)c(O)c3)oc3cc(O)cc(O)c3c2=O)C(O)C(O)C1O` (centres unmarked) [Compound 12, quercetin-3-rhamnoside]: the IC50 in data set [1] came to 0.562 ± 0.021 mM. Also, the toxicity result in data set [3] is reported as “nontoxic”.
Consider `CC1(C(=O)O)CCCC2(C)c3c(C=O)c4c(c(O)c3CCC12)COC4=O` (centres unmarked) [Compound 1, 14-hydroxyabieta-8,11,13-triene-11-carbaldehyde-18-oic-12-carboxy-13-(1-hydroxy-1-methylethyl)-lactone], for which, in data set [1], 0.379 ± 0.016 mM corresponded to half-maximal inhibition (IC50).
On the same count and under the same terms, in the case of `CCC/C=C/C=C/c1c(O)cc(CC=C(C)C)c(O)c1C=O` [Compound 19, dihydroauroglaucin] it was 0.255 ± 0.013 mM; in that of `CCCCCc1cc2c(C=O)c(O)c(CC=C(C)C)cc2o1` [Compound 20, 2-(2′,3-epoxy-1′-heptenyl)-6-hydroxy-5-(3″-methyl-2″-butenyl) benzaldehyde], 0.371 ± 0.015 mM; in that of `CC1=C(CCc2ccoc2)C2(C)CCCC(C)(CO)C2CC1` (centres unmarked) [Compound 4, 15,16-eposy-8,13(16),14-labdatrien-19-ol], 0.067 ± 0.003 mM.
On to `COc1ccc(-c2cc(=O)c3c(O)cc(OC4OC(COC5OC(C)C(O)C(O)C5O)C(O)C(O)C4O)cc3o2)cc1` (centres unmarked) [Compound 10, acacetin-7-rutinoside], for which, in data set [3], the toxicity result was “nontoxic”.

The values above are taken from article PMC4319760, “Rapid Identification of α-Glucosidase Inhibitors from Phlomis tuberosa by Sepbox Chromatography and Thin-Layer Chromatography Bioautography” (PLoS ONE, 2015).
